For assay [1], the target named is Cannabinoid receptor 2 (Homo sapiens, UniProt P34972). Description: (§1) cAMP Assay: CHO cells expressing human CB1 or CB2 receptors are seeded 17-24 hours prior to the experiment 50.000 cells per well in a black 96 well plate with flat clear bottom (Corning Costar #3904) in DMEM (Invitrogen No. 31331), 1xHT supplement, with 10% fetal calf serum and incubated at 5% CO2 and 37° C. in a humidified incubator. The growth medium was exchanged with Krebs Ringer Bicarbonate buffer with 1 mM IBMX and incubated at 30° C. for 30 min. Compounds were added to a final assay volume of 100 ul and incubated for 30 min at 30° C. Using the cAMP-Nano-TRF detection kit the assay (Roche Diagnostics) was stopped by the addition of 50 ul lysis reagent (Tris, NaCl, 1.5% Triton X100, 2.5% NP40, 10% NaN3) and 50 ul detection solutions (20 uM mAb Alexa700-cAMP 1:1, and 48 uM Ruthenium-2-AHA-cAMP) and shaken for 2 h at room temperature. The time-resolved energy transfer is measured by a TRF reader (Evotec Technologies GmbH), equipped with a ND:YAG laser as excitation source. The plate is measured twice with the excitation at 355 nm and at the emission with a delay of 100 ns and a gate of 100 ns, total exposure time 10 s at 730 (bandwidth 30 nm) or 645 nm (bandwidth 75 nm), respectively. The FRET signal is calculated as follows: FRET=T730-Alexa730-P (T645-B645) with P=Ru730-B730/Ru645-B645, where T730 is the test well measured at […], T645 is the test well measured at 645 nm, B730 and B645 are the buffer controls at 730 nm and 645 nm, respectively. cAMP content is determined from the function of a standard curve spanning from 10 uM to 0.13 nM cAMP. EC50 values were determined using Activity Base analysis (ID Business Solution, Limited). The EC50 values for a wide range of cannabinoid agonists generated from this assay were in agreement with the values published in the scientific literature.

Assay [2] addresses Cannabinoid receptor 1 (Homo sapiens, UniProt P21554). Described as §1.

Chain of Cannabinoid receptor 2 (P34972 whole entry): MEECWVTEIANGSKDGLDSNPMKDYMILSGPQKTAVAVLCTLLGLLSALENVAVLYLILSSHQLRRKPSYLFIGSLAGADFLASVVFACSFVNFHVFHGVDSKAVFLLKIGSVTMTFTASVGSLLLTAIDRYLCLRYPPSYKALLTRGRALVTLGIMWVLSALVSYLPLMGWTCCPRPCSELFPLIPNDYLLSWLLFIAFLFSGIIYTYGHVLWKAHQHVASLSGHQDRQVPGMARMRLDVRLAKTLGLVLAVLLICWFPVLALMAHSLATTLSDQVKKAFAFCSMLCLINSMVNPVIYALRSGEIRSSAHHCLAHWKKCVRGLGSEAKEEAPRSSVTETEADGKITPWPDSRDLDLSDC
Chain of Cannabinoid receptor 1 (P21554 whole entry): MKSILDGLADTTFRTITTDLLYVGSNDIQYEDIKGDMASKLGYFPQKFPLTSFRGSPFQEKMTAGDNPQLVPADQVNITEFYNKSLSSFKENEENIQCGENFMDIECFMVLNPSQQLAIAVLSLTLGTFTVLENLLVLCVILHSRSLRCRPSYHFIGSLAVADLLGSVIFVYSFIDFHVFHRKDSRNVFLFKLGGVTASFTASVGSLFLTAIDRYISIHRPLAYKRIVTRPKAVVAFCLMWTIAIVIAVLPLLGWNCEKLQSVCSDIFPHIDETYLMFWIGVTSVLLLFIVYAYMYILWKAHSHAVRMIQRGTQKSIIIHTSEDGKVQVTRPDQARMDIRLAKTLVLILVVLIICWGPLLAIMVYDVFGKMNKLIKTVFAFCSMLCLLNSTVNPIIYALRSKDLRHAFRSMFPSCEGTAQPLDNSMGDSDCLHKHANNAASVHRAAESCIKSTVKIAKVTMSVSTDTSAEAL

Consider `CC1(C)CCCN1C(=O)c1cnc(C2CC2)c(OCC2CC2)n1`, for which the half-maximal effective concentration (EC50) (commonly the concentration that produces a half-maximal response) in assay [1] was 11.2 nM; in assay [2], > 10000 nM.

As to `CCN(C(=O)c1cnc(N2CC(F)(F)C2)c(OCC2CC2)n1)C(C)C`, the EC50 in assay [1] is 19.9 nM; in assay [2], > 10000 nM.

`NC(=O)[C@@H]1CC(F)(F)CN1C(=O)c1cnc(C2CC2)c(OCC2CC2)n1`: the EC50 in assay [1] was 23.5 nM; in assay [2], > 10000 nM.
